# Measured values taken from patent publication US20170190671A1, “BIS(ARYL)CATECHOL DERIVATIVES AS HERBICIDES” (E I DU PONT DE NEMOURS AND COMPANY, priority 2014, published 2017).
# Tests used:
# Assay type in all cases: in vivo
# [1] = tested on: barnyardgrass (Echinochloa crus-galli); assay: Test C preemergence; details: Echinochloa crus-galli, pre-emergence, read-out: Plant response rating, Barnyardgrass
# In short: (§1)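 Treatment is preemergence to seeds in a loam and sand soil, or postemergence to plants 2 to 18 cm high in a peat moss-based medium. The compound is delivered in a non-phytotoxic solvent mixture including surfactant. Effects are judged by eye 13 to 15 days later on a 0 to 100 scale.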
# [2] = tested on: galium (catchweed bedstraw, Galium aparine); assay: Test C preemergence; details: Galium, pre-emergence, 336 h, scale 0 to 100, read-out: Plant response rating, Galium
# In short: as §1
# [3] = tested on: johnsongrass (Sorghum halepense); assay: Test C preemergence; details: Sorghum halepense, pre-emergence, 336 h, scale 0 to 100, read-out: Plant response rating, Johnsongrass
# In short: as §1
# [4] = tested on: Italian ryegrass (Lolium multiflorum); assay: Test C postemergence; details: Lolium multiflorum, post-emergence, 336 h, Postemergence, scale 0 to 100, read-out: Plant response rating, Ryegrass, Italian
# In short: as §1
# [5] = tested on: barnyardgrass (Echinochloa crus-galli); assay: Test C postemergence; details: Echinochloa crus-galli, post-emergence, Postemergence, scale 0 to 100, read-out: Plant response rating, Barnyardgrass
# In short: as §1
# [6] = tested on: blackgrass (Alopecurus myosuroides); assay: Test C postemergence; details: Alopecurus myosuroides, post-emergence, 336 h, Postemergence, scale 0 to 100, read-out: Plant response rating, Blackgrass
# In short: as §1
# [7] = tested on: chickweed (common chickweed, Stellaria media); assay: Test C postemergence; details: Stellaria media, post-emergence, Postemergence, scale 0 to 100, read-out: Plant response rating, Chickweed
# In short: as §1
# [8] = tested on: corn (Zea mays); assay: Test C postemergence; details: Zea mays, post-emergence, 336 h, Postemergence, scale 0 to 100
# In short: as §1
# [9] = tested on: galium (catchweed bedstraw, Galium aparine); assay: Test C postemergence; details: Galium, post-emergence, 336 h, Postemergence, scale 0 to 100, read-out: Plant response rating, Galium
# In short: as §1
# [10] = tested on: giant foxtail (Setaria faberii); assay: Test C postemergence; details: Setaria faberi, post-emergence, 336 h, Postemergence, scale 0 to 100, read-out: Plant response rating, Foxtail, Giant
# In short: as §1
# [11] = tested on: johnsongrass (Sorghum halepense); assay: Test C postemergence; details: Sorghum halepense, post-emergence, 336 h, Postemergence, scale 0 to 100, read-out: Plant response rating, Johnsongrass
# In short: as §1
# [12] = tested on: lambsquarters (Chenopodium album); assay: Test C postemergence; details: Chenopodium album, post-emergence, 336 h, Postemergence, scale 0 to 100, read-out: Plant response rating, Lambsquarters
# In short: as §1
# [13] = tested on: large (Lg) crabgrass (Digitaria sanguinalis); assay: Test C postemergence; details: Digitaria sanguinalis, post-emergence, 336 h, Postemergence, scale 0 to 100, read-out: Plant response rating, Crabgrass, Large
# In short: as §1
# [14] = tested on: morningglory (Ipomoea coccinea); assay: Test C postemergence; details: Ipomoea, post-emergence, 336 h, Postemergence, scale 0 to 100, read-out: Plant response rating, Morningglory
# In short: as §1
# [15] = tested on: oilseed rape (Brassica napus); assay: Test C postemergence; details: Brassica napus, post-emergence, Postemergence, scale 0 to 100, read-out: Plant response rating, Oilseed Rape
# In short: as §1
# [16] = tested on: ragweed (common ragweed, Ambrosia elatior); assay: Test C postemergence; details: Ambrosia artemisiifolia, post-emergence, 336 h, Postemergence, scale 0 to 100, read-out: Plant response rating, Ragweed
# In short: as §1
# [17] = tested on: soybean (Glycine max); assay: Test C postemergence; details: Glycine max, post-emergence, Postemergence, scale 0 to 100, read-out: Plant response rating, Soybean
# In short: as §1
# [18] = tested on: velvetleaf (Abutilon theophrasti); assay: Test C postemergence; details: Abutilon theophrasti, post-emergence, Postemergence, scale 0 to 100, read-out: Plant response rating, Velvetleaf
# In short: as §1
# [19] = tested on: waterhemp (common waterhemp, Amaranthus rudis); assay: Test C postemergence; details: Amaranthus tuberculatus, post-emergence, Postemergence, scale 0 to 100, read-out: Plant response rating, Waterhemp
# In short: as §1
# [20] = tested on: wild oat (Avena fatua); assay: Test C postemergence; details: Avena fatua, post-emergence, Postemergence, scale 0 to 100, read-out: Plant response rating, Oat, Wild
# In short: as §1
# [21] = tested on: winter wheat (Triticum aestivum); assay: Test C postemergence; details: Triticum aestivum, post-emergence, 336 h, Postemergence, scale 0 to 100, read-out: Plant response rating, Wheat
# In short: as §1
# [22] = tested on: yellow nutsedge (Cyperus esculentus); assay: Test C postemergence; details: Cyperus, post-emergence, 336 h, Postemergence, scale 0 to 100, read-out: Plant response rating, Nutsedge, Yellow
# In short: as §1
smiles,measurement,setting,value
"Fc1ccc(F)c(Oc2ncc(Cl)cn2)c1Oc1ncc(Cl)cn1 [Compound 34, 2,2′-[(3,6-difluoro-1,2-phenylene)bis(oxy)]bis[5-chloropyrimidine]]",pest or weed control at 31 g/ha,"[1]; 31 g ai/ha, preemergence, scale 0 to 100",55%
same,pest or weed control at 62 g/ha,"[1]; 62 g ai/ha, preemergence, scale 0 to 100",85%
same,pest or weed control at 125 g/ha,"[1]; 125 g ai/ha, preemergence, scale 0 to 100",98%
same,pest or weed control at 16 g/ha,"[1]; Preemergence, 16 g ai/ha, scale 0 to 100 (0 no effect, 100 complete control)",20%
same,pest or weed control at 31 g/ha,"[2]; 31 g ai/ha, preemergence",95%
same,pest or weed control at 62 g/ha,"[2]; 62 g ai/ha, preemergence",95%
same,pest or weed control at 125 g/ha,"[2]; 125 g ai/ha, preemergence",98%
same,pest or weed control at 16 g/ha,"[2]; Preemergence, 16 g ai/ha",90%
same,pest or weed control at 31 g/ha,"[3]; 31 g ai/ha, preemergence",55%
same,pest or weed control at 62 g/ha,"[3]; 62 g ai/ha, preemergence",75%
same,pest or weed control at 125 g/ha,"[3]; 125 g ai/ha, preemergence",98%
same,pest or weed control at 16 g/ha,"[3]; Preemergence, 16 g ai/ha",50%
same,pest or weed control at 31 g/ha,[4]; 31 g ai/ha,0%
same,pest or weed control at 62 g/ha,[4]; 62 g ai/ha,0%
same,pest or weed control at 125 g/ha,[4]; 125 g ai/ha,0%
same,pest or weed control at 16 g/ha,[5]; 16 g ai/ha,5%
same,pest or weed control at 31 g/ha,[5]; 31 g ai/ha,5%
same,pest or weed control at 62 g/ha,[5]; 62 g ai/ha,10%
same,pest or weed control at 125 g/ha,[5]; 125 g ai/ha,10%
same,pest or weed control at 16 g/ha,[6]; 16 g ai/ha,0%
same,pest or weed control at 31 g/ha,[6]; 31 g ai/ha,0%
same,pest or weed control at 62 g/ha,[6]; 62 g ai/ha,0%
same,pest or weed control at 125 g/ha,[6]; 125 g ai/ha,5%
same,pest or weed control at 16 g/ha,[7]; 16 g ai/ha,50%
same,pest or weed control at 31 g/ha,[7]; 31 g ai/ha,50%
same,pest or weed control at 62 g/ha,[7]; 62 g ai/ha,80%
same,pest or weed control at 125 g/ha,[7]; 125 g ai/ha,95%
same,"Corn plant response rating (crop injury, 0 = no effect, 100 = complete kill) at 16 g/ha",[8]; 16 g ai/ha,5%
same,"Corn plant response rating (crop injury, 0 = no effect, 100 = complete kill) at 31 g/ha",[8]; 31 g ai/ha,5%
same,"Corn plant response rating (crop injury, 0 = no effect, 100 = complete kill) at 62 g/ha",[8]; 62 g ai/ha,5%
same,"Corn plant response rating (crop injury, 0 = no effect, 100 = complete kill) at 125 g/ha",[8]; 125 g ai/ha,5%
same,pest or weed control at 16 g/ha,[9]; 16 g ai/ha,80%
same,pest or weed control at 31 g/ha,[9]; 31 g ai/ha,80%
same,pest or weed control at 62 g/ha,[9]; 62 g ai/ha,85%
same,pest or weed control at 125 g/ha,[9]; 125 g ai/ha,85%
same,pest or weed control at 16 g/ha,[10]; 16 g ai/ha,5%
same,pest or weed control at 31 g/ha,[10]; 31 g ai/ha,5%
same,pest or weed control at 62 g/ha,[10]; 62 g ai/ha,5%
same,pest or weed control at 125 g/ha,[10]; 125 g ai/ha,25%
same,pest or weed control at 16 g/ha,[11]; 16 g ai/ha,5%
same,pest or weed control at 31 g/ha,[11]; 31 g ai/ha,5%
same,pest or weed control at 62 g/ha,[11]; 62 g ai/ha,10%
same,pest or weed control at 125 g/ha,[11]; 125 g ai/ha,10%
same,pest or weed control at 16 g/ha,[12]; 16 g ai/ha,55%
same,pest or weed control at 31 g/ha,[12]; 31 g ai/ha,75%
same,pest or weed control at 62 g/ha,[12]; 62 g ai/ha,70%
same,pest or weed control at 125 g/ha,[12]; 125 g ai/ha,80%
same,pest or weed control at 16 g/ha,[13]; 16 g ai/ha,0%
same,pest or weed control at 31 g/ha,[13]; 31 g ai/ha,0%
same,pest or weed control at 62 g/ha,[13]; 62 g ai/ha,5%
same,pest or weed control at 125 g/ha,[13]; 125 g ai/ha,5%
same,pest or weed control at 31 g/ha,[14]; 31 g ai/ha,95%
same,pest or weed control at 62 g/ha,[14]; 62 g ai/ha,90%
same,pest or weed control at 125 g/ha,[14]; 125 g ai/ha,95%
same,plant injury at 31 g/ha,[15]; 31 g ai/ha,50%
same,plant injury at 62 g/ha,[15]; 62 g ai/ha,70%
same,plant injury at 125 g/ha,[15]; 125 g ai/ha,70%
same,pest or weed control at 31 g/ha,[16]; 31 g ai/ha,50%
same,pest or weed control at 62 g/ha,[16]; 62 g ai/ha,60%
same,pest or weed control at 125 g/ha,[16]; 125 g ai/ha,60%
same,plant injury at 31 g/ha,[17]; 31 g ai/ha,70%
same,plant injury at 62 g/ha,[17]; 62 g ai/ha,85%
same,plant injury at 125 g/ha,[17]; 125 g ai/ha,40%
same,pest or weed control at 31 g/ha,[18]; 31 g ai/ha,60%
same,pest or weed control at 62 g/ha,[18]; 62 g ai/ha,60%
same,pest or weed control at 125 g/ha,[18]; 125 g ai/ha,65%
same,pest or weed control at 31 g/ha,[19]; 31 g ai/ha,70%
same,pest or weed control at 62 g/ha,[19]; 62 g ai/ha,80%
same,pest or weed control at 125 g/ha,[19]; 125 g ai/ha,90%
same,pest or weed control at 31 g/ha,[20]; 31 g ai/ha,0%
same,pest or weed control at 62 g/ha,[20]; 62 g ai/ha,5%
same,pest or weed control at 125 g/ha,[20]; 125 g ai/ha,10%
same,plant injury at 31 g/ha,[21]; 31 g ai/ha,0%
same,plant injury at 62 g/ha,[21]; 62 g ai/ha,0%
same,plant injury at 125 g/ha,[21]; 125 g ai/ha,0%
same,pest or weed control at 31 g/ha,[22]; 31 g ai/ha,10%
same,pest or weed control at 62 g/ha,[22]; 62 g ai/ha,10%
same,pest or weed control at 125 g/ha,[22]; 125 g ai/ha,10%
